Laboratory results reported in US20240366553A1, “ASPARTIC ACID COPPER COMPLEX, AND USE THEREOF” (GUANGZHOU INSIGHTER BIOTECHNOLOGY CO., LTD., priority 2021, published 2024).

Assays:
[1] = tested on: Lingnan yellow-feathered, fast-growing, and large-sized broilers; details: for Average feed consumption / Average weight gain / Feed-to-meat ratio / Survival rate (%) / Relative weight gain rate (%): 50 mg/kg in feed (as copper ion), broilers aged 1 to 21 days; for Relative weight gain rate (%): relative to control group; for Physical characteristics of the experimental chickens: experimental groups of compounds 1-7
Excerpt: (§1) Experimental animals: 900 one-day-old Lingnan yellow-feathered, fast-growing, and large-sized broilers; 150 weaned piglets;
(§2) Feeds: basal feed for chickens and basal feed for pigs that contain no antimicrobial drugs, copper sources and growth promoters;
(§3) Experimental samples: compound 1, compound 2, compound 3, compound 4, compound 5, compound 6, compound 7,
900 one-day-old Lingnan yellow-feathered, fast-growing, and large-sized broilers were randomly divided into 18 groups (50 broilers/group). […] The broilers had free access to food. The weight gain and feed conversion of the experimental chickens (aged from 1 to 21 days) in each experimental group were recorded.

[2] = tested on: weaned piglets; details: for Average weight gain / Feed-to-meat ratio / Survival rate (%) / Total feed consumption / Total weight gain / Relative weight gain rate (%): 50 mg/kg in feed (as copper ion), weaned piglets, 30 days; for Total feed consumption / Total weight gain: 10 pigs; for Relative weight gain rate (%): control group = 100
Excerpt: as §1, §2, §3
150 weaned piglets were grouped according to Table 2 (10 piglets/group). […] The piglets had free access to food. The weight gain and feed conversion of the experimental pigs in each experimental group were recorded within 30 days after […] weaning.

[3] = tested on: black carp (subyearlings); assay: Use of aspartic acid copper complex in aquaculture feeds (black carp breeding experiment); assay type: in vivo; details: 30 mg/kg in feed (as copper ions), 8 weeks
Experimental: Experimental fishes: The experimental fishes used were black carp (subyearlings), which were provided by the Dafeng fish nursery (Huizhou city, Guangdong province). Healthy and active fingerling black carps (uniform in size) were fed for 4 weeks in a big net cage (4×2×1.5 m^3) and then the formal breeding experiment was carried out. The experimental systems were small floating net cages (1.1×1.1×1.1 m^3 in size). Each small net cage was provided with an air-filling head, which allowed for continuous inflation of the cages for 24 h a day. The small net cages and the acclimatization net cage were all placed in a 3500 m^2 pond in the experimental field. […] During the trial, 480 black carps (fasted for 1 d) were randomly divided into 10 groups, with 4 replicates for each group and 12 fishes in each replicate. After weighing as a whole, the black carps were randomly placed into […] and fed with different experimental feeds.
Experimental feeds: The experimental feeds were formulated following the formula in Table 5. According to Table 6, different copper element supplements (calculated based on the copper ions) were added to the feeds in different experimental groups, respectively. The feed raw materials were subjected to ultrafine grinding and then granulated into floating expanded feeds (3 mm) using an expansion machine from Jiangsu Muyang Corporation. The demolding temperature was 130° C. 3% soybean oil was externally sprayed using an oil spraying device. The finished product was sealed and stored in a cool place for later use.
Experimental management: During the trial, the carps were manually fed in a restricted dose. The feeding dose was adjusted once a week, and the doses for all groups (based on the initial body weight) were completely consistent. The carps were fed twice a day (at 7:30 and 15:00). The experiment lasted for 8 weeks. During the trial, the water quality was regularly monitored, and throughout the breeding, the water temperature was kept at 26.88±3.08° C., DO>5.0 mg O L^−1, pH 7.8, ammonia nitrogen<0.50 mg NL^−1, and nitrite-nitrogen<0.05 mg N L^−1.
Parametric statistics: During the trial, the carps in each net cage were weighed as a whole one day after discontinuation of feeding, and the average weight gain (g) and feed-to-meat ratio were calculated. The calculation formulas are as follows:
Average weight gain (g)=Average final weight−Average initial weight; Feed-to-meat ratio=Food intake/Weight gain of fishes;

| SMILES | Average feed consumption [1] [g] | Average weight gain [1] [g] | Feed-to-meat ratio [1] | Survival rate (%) [1] [%] | Relative weight gain rate (%) [1] [%] | Physical characteristics of the experimental chickens [1] | Average weight gain [2] [kg] | Feed-to-meat ratio [2] | Survival rate (%) [2] [%] | Total feed consumption [2] [kg] | Total weight gain [2] [kg] | Relative weight gain rate (%) [2] [%] | Improvement in the feed conversion of the experimental pigs compared with compound 4 ([2]; used at the same doses (50 mg/kg)) | Average weight gain [3] [g] | Feed-to-meat ratio [3] | Production performance of the experimental pigs ([2]; 50 mg/kg, versus control group) |
| --- | --- | --- | --- | --- | --- | --- | --- | --- | --- | --- | --- | --- | --- | --- | --- | --- |
| N[C@@H](CC(=O)[O-])C(=O)[O-].O.O.[Cu+2] [Compound 2, [(Cu(II))(L-Asp)(H2O)2]. (H2O)0.34] | 908 | 509 | 1.783 | 100 | 107.4 | normal physical characteristics | 12.30 | 2.116 | 100 | 260.21 | 123.0 | 112.8 | about 2 fold | 368 | 1.359 | – |
| NC(CC(=O)[CH2][Cu][O]C(=O)CC(N)C(=O)O)C(=O)O (centres unmarked) [Compound 8, reference compound] | – | – | – | 100 | – | – | – | – | 100 | – | – | – | – | – | – | substantially close to that achieved in the control group |
| N[C@@H](CC(=O)[O-])C(=O)[O-].[Cu+2] (racemic) [Compound 6, [(Cu(II))(DL-Asp)]] | 912 | 510 | 1.789 | 100 | 107.6 | normal physical characteristics | 12.08 | 2.173 | 100 | 262.46 | 120.8 | 110.8 | – | 353 | 1.416 | – |
